Experimental data: ChEMBL document CHEMBL1153593, “Recent developments in the design and synthesis of hybrid molecules based on aminoquinoline ring and their antiplasmodial evaluation” (Eur J Med Chem, 2009)
Converted amounts (≈) assume the structure as drawn.

Experiments:
Plasmodium berghei [1] = experiment: Gametocytocidal activity as infected mosquitoes against Plasmodium berghei at 10 uM/kg; assay type: functional
Plasmodium berghei [2] = experiment: Gametocytocidal activity as oocysts per mosquito against Plasmodium berghei; assay type: functional
[3] = Stability assessed as hydrolysis to metabolite in presence of 80% human plasma; assay type: ADME, cell-free
Plasmodium falciparum [4] = experiment: Antimalarial activity against chloroquine-resistant Plasmodium falciparum W2; assay type: functional, organism-based
[5] = Inhibition of Plasmodium falciparum falcipain-2
Plasmodium falciparum [6] = experiment: Antimalarial activity against Plasmodium falciparum FcB1R; details: read-out: ED50 (the source's name)
Plasmepsin II = Plasmepsin II (Plasmodium falciparum, UniProt P46925); experiment: Inhibition of Plasmodium falciparum plasmepsin-2
Sequence of Plasmepsin II (P46925 whole entry): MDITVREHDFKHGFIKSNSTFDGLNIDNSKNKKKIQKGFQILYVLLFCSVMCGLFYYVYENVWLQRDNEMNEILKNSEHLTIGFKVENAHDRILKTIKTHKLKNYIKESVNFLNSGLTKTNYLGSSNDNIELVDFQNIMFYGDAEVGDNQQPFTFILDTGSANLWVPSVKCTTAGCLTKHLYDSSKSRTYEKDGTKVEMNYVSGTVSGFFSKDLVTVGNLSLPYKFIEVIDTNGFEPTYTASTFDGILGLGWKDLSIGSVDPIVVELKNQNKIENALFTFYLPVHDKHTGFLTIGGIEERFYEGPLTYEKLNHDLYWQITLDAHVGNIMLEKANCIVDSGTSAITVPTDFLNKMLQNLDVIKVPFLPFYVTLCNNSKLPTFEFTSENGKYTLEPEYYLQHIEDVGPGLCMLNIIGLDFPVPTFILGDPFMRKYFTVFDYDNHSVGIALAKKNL

Plasmodium falciparum [7] = experiment: Antimalarial activity against chloroquine-sensitive Plasmodium falciparum D10 at 9 uM; assay type: functional
Plasmodium falciparum [8] = experiment: Antimalarial activity against chloroquine-resistant Plasmodium falciparum W2 at 9 uM; assay type: functional
Plasmodium falciparum [9] = experiment: Antimalarial activity against chloroquine-resistant Plasmodium falciparum K1; assay type: functional, organism-based
Plasmodium falciparum [10] = experiment: microbe, parasite or virus in culture; details: D10
Plasmodium falciparum [11] = experiment: Antimalarial activity against Plasmodium falciparum 3D7; assay type: functional, organism-based
Plasmodium falciparum [12] = experiment: Antimalarial activity against chloroquine-resistant Plasmodium falciparum Dd2; assay type: functional, organism-based
Plasmodium falciparum [13] = experiment: Antimalarial activity against chloroquine-resistant Plasmodium falciparum FcB1; assay type: functional, organism-based
Plasmodium falciparum [14] = experiment: Antimalarial activity against Plasmodium falciparum THAI; assay type: functional, organism-based
Homo sapiens = species: Homo sapiens; experiment: (§1) Terminal half life in human; assay type: ADME, organism-based; details: in vivo
Plasmodium yoelii [15] = experiment: Antimalarial activity as reduced parasitaemia at day 4 against Plasmodium yoelii N67 infected Swiss mice (Mus musculus) compared to chloroquine; assay type: functional, N-67; parameters: scale not given: the % may be the effect or the level left
Plasmodium yoelii [16] = experiment: Antimalarial activity as mean survival time against Plasmodium yoelii N67 infected Swiss mice (Mus musculus); assay type: functional, N-67
Plasmodium falciparum [17] = experiment: Antimalarial activity against Plasmodium falciparum NF54; details: NF-54
[18] = as §1; assay type: ADME, organism-based; details: in vivo, read-out: beta t1/2 (converted)

For `COc1cc(NC(C)CCCN2C(=O)[C@@H](Cc3ccccc3)NC23CCCCC3)c2ncccc2c1` (stereo partly drawn), the Activity (Plasmodium berghei [1]) was 83%, the Activity (Plasmodium berghei [2]) was 71 and the Stability [3] was “Stable”.
In the case of `CC1(C(=O)NC2CCCCC2)CCCC(=O)N1CCCCCCNc1ccnc2cc(Cl)ccc12` (stereo not drawn), the IC50 (Plasmodium falciparum [4]) is reported as 96 nM and the IC50 [5] is reported as 17600 nM.
Compound `O=C(CN1CCCCC1)Nc1cc(COC(=O)CCCCC2=CC(=O)c3ccccc3C2=O)cc(Nc2ccnc3ccc(Cl)cc23)c1` has an EC50 (Plasmodium falciparum [6]) of 23 nM.
In the case of `CCCCNC(=O)C[C@H](O)[C@H](CC(C)C)NC(=O)[C@@H](NC(=O)CCC(=O)N[C@H](C(=O)N[C@H](CCCCN)C(=O)NCCCC(C)Nc1cc(OC)cc2cccnc12)C(C)C)[C@H](C)CC` (stereo partly drawn), the IC50 (Plasmepsin II) is reported as 396000 nM, the Activity (Plasmodium falciparum [7]) is reported as 20% and the Activity (Plasmodium falciparum [8]) is reported as 40%.
In the case of `O=C(CN(CCCNc1ccnc2cc(Cl)ccc12)C(=O)c1cnccn1)C1CCCCC1`, the IC50 (Plasmodium falciparum [9]) is reported as 521 nM, the IC50 (Plasmodium falciparum [4]) is reported as 877 nM and the IC50 (Plasmodium falciparum [10]) is reported as 242 nM.
With `O=C(CN(CCCNc1ccnc2cc(Cl)ccc12)C(=O)c1ccncc1)C1CCCCC1` the IC50 (Plasmodium falciparum [9]) was 73 nM, the IC50 (Plasmodium falciparum [4]) was 1570 nM and the IC50 (Plasmodium falciparum [10]) was 237 nM.
`CCCCN(CCCNc1ccnc2cc(Cl)ccc12)Cc1ccsc1` gave an IC50 (Plasmodium falciparum [11]) of 50 nM, an IC50 (Plasmodium falciparum [4]) of 50 nM and an IC50 (Plasmodium falciparum [12]) of 45 nM.
`O=C(CN1CCCCC1)Nc1cc(COC(=O)CCCCCC2=CC(=O)c3cccc(O)c3C2=O)cc(Nc2ccnc3ccc(Cl)cc23)c1` showed an EC50 (Plasmodium falciparum [6]) of 23 nM.
In the case of `O=C(CN1CCCCC1)Nc1cc(COC(=O)CCCCC2=CC(=O)c3cccc(O)c3C2=O)cc(Nc2ccnc3ccc(Cl)cc23)c1`, the EC50 (Plasmodium falciparum [6]) is reported as 23 nM.
In the case of `COc1cc(NC(C)CCCN2C(=O)[C@@H](CC(C)C)NC2(C)C)c2ncccc2c1` (stereo partly drawn), the Activity (Plasmodium berghei [1]) is reported as 30%, the Activity (Plasmodium berghei [2]) is reported as 13.7 and the Stability [3] is reported as “Stable”.
`COc1cc(NC(C)CCCN2C(=O)[C@@H](C(C)C)NC23CCCCCC3)c2ncccc2c1` (stereo partly drawn) gave an Activity (Plasmodium berghei [1]) of 65% and an Activity (Plasmodium berghei [2]) of 17.7.
For `CCCCN(CCCNc1ccnc2cc(Cl)ccc12)Cc1cc(Br)ccc1O`, the IC50 (Plasmodium falciparum [11]) was 45 nM, the IC50 (Plasmodium falciparum [4]) was 45 nM and the IC50 (Plasmodium falciparum [12]) was 45 nM.
For `CC(C)(C)C(=O)CN(CCNc1ccnc2cc(Cl)ccc12)C(=O)c1ccncc1`, the IC50 (Plasmodium falciparum [9]) was 1100 nM, the IC50 (Plasmodium falciparum [4]) was 991 nM and the IC50 (Plasmodium falciparum [10]) was 1060 nM.
`CCCCNC(=O)C[C@H](O)[C@H](CC(C)C)NC(=O)[C@@H](NC(=O)c1ccc(Oc2ccc(C(=O)N[C@H](C(=O)N[C@H](CCCCN)C(=O)NCCCC(C)Nc3cc(OC)cc4cccnc34)C(C)C)cc2)cc1)[C@H](C)CC` (stereo partly drawn) gave an IC50 (Plasmodium falciparum [4]) of 700 nM, an IC50 (Plasmepsin II) of 590 nM and an IC50 (Plasmodium falciparum [10]) of 400 nM.
With `COc1cc(NC(C)CCCN2C(=O)[C@@H](Cc3ccccc3)NC23CCCC3)c2ncccc2c1` (stereo partly drawn) the Activity (Plasmodium berghei [1]) was 65% and the Activity (Plasmodium berghei [2]) was 51.6.
Compound `CC(C)(C)C(=O)CN(CCNc1ccnc2cc(Cl)ccc12)C(=O)c1ccc(O)cc1O` has an IC50 (Plasmodium falciparum [9]) of 5790 nM, an IC50 (Plasmodium falciparum [4]) of 4140 nM and an IC50 (Plasmodium falciparum [10]) of 5660 nM.
Work on `O=C(CN(CCNc1ccnc2cc(Cl)ccc12)C(=O)c1ccncc1)C1CCCCC1` yielded an IC50 (Plasmodium falciparum [9]) of 531 nM, an IC50 (Plasmodium falciparum [4]) of 619 nM and an IC50 (Plasmodium falciparum [10]) of 540 nM.
In the case of `COc1cc(NC(C)CCCN2C(=O)[C@@H](Cc3ccccc3)NC2(C)C)c2ncccc2c1` (stereo partly drawn), the Activity (Plasmodium berghei [1]) is reported as 76%, the Activity (Plasmodium berghei [2]) is reported as 61.2 and the Stability [3] is reported as “Stable”.
With `O=C(CN1CCCCC1)Nc1cc(CN2CCCCC2)cc(Nc2ccnc3ccc(Cl)cc23)c1` the IC50 (Plasmodium falciparum [9]) was 8.1 nM, the IC50 (Plasmodium falciparum [13]) was 10 nM and the IC50 (Plasmodium falciparum [14]) was 6.7 nM.
For `CC(C)(C)C(=O)CN(CCCNc1ccnc2cc(Cl)ccc12)C(=O)c1ccncc1`, the IC50 (Plasmodium falciparum [9]) was 18200 nM, the IC50 (Plasmodium falciparum [4]) was 3810 nM and the IC50 (Plasmodium falciparum [10]) was over 20000 nM.
For `CCCCNC(=O)C[C@H](O)[C@H](CC(C)C)NC(=O)[C@@H](NC(=O)Cc1ccc2cc(CC(=O)N[C@H](C(=O)N[C@H](CCCCN)C(=O)NCCCC(C)Nc3cc(OC)cc4cccnc34)C(C)C)ccc2c1)[C@H](C)CC` (stereo partly drawn), the IC50 (Plasmodium falciparum [4]) was 4700 nM, the IC50 (Plasmepsin II) was 1510 nM and the IC50 (Plasmodium falciparum [10]) was 6200 nM.
`COc1cc(NC(C)CCCN2C(=O)[C@@H](C)NC23CCCCC3)c2ncccc2c1` (stereo partly drawn) showed an Activity (Plasmodium berghei [1]) of 20% and an Activity (Plasmodium berghei [2]) of 0.8.
Compound `Cc1ccc2c(c1)/C(=N\NC(N)=S)C(=O)N2CCNc1ccnc2cc(Cl)ccc12` has an IC50 (Plasmodium falciparum [9]) of 100 nM, an IC50 (Plasmodium falciparum [4]) of 51 nM and an IC50 [5] of 11600 nM. It also gave an IC50 (Plasmodium falciparum [10]) of 79 nM.
With `COc1cc(NC(C)CCCN2C(=O)[C@@H](C(C)C)NC2(C)C)c2ncccc2c1` (stereo partly drawn) the Activity (Plasmodium berghei [1]) was 25%, the Activity (Plasmodium berghei [2]) was 5 and the Stability [3] was “Stable”.
With `COc1cc(NC(C)CCCN2C(=O)[C@@H](C(C)C)NC23CCCC3)c2ncccc2c1` (stereo partly drawn) the Activity (Plasmodium berghei [1]) was 35% and the Activity (Plasmodium berghei [2]) was 4.2.
For `COc1cc(NC(C)CCCN2C(=O)[C@@H](C(C)C)NC23CCCCC3)c2ncccc2c1` (stereo partly drawn), the Activity (Plasmodium berghei [1]) was 85%, the Activity (Plasmodium berghei [2]) was 61.1 and the Stability [3] was “Stable”.
With `NC(=S)N/N=C1/C(=O)N(CCNc2ccnc3cc(Cl)ccc23)c2ccc(Cl)cc21` the IC50 (Plasmodium falciparum [9]) was 54 nM and the IC50 (Plasmodium falciparum [10]) was 95 nM.
With `CCN(CC)CCCC(C)Nc1ccnc2cc(Cl)ccc12` (stereo not drawn) [CHLOROQUINE] the “beta t1/2” value (Homo sapiens) was 1 months, the Activity (Plasmodium yoelii [15]) was 99.9% and the Survival (Plasmodium yoelii [16]) was 20 days. It also gave an IC50 (Plasmodium falciparum [17]) of 106 nM and an MIC (Plasmodium falciparum [17]) of 0.39 µM (≈ 0.125 µg/mL).
With `COc1cc(NC(C)CCCN)c2ncccc2c1` (stereo not drawn) [PRIMAQUINE] the half-life [18] was 14 days, the Activity (Plasmodium berghei [1]) was 28% and the Activity (Plasmodium berghei [2]) was 2.6.
